The record followed here is ChEMBL document CHEMBL1131220, “Isosteric analogues of nicotinamide adenine dinucleotide derived from furanfurin, thiophenfurin, and selenophenfurin as mammalian inosine monophosphate dehydrogenase (type I and II) inhibitors” (J Med Chem, 1998).

Each structure is given as a SMILES string. pKi: −log10 of the molar value.

In the first test the target is T1, Inosine-5'-monophosphate dehydrogenase 1 (Homo sapiens, UniProt P20839). Put plainly: The compound was tested for the inhibition towards IMP(Inosine 5'-monophosphate) substrate of Inosine-5'-monophosphate dehydrogenase 1.
T1 sequence (P20839 whole entry): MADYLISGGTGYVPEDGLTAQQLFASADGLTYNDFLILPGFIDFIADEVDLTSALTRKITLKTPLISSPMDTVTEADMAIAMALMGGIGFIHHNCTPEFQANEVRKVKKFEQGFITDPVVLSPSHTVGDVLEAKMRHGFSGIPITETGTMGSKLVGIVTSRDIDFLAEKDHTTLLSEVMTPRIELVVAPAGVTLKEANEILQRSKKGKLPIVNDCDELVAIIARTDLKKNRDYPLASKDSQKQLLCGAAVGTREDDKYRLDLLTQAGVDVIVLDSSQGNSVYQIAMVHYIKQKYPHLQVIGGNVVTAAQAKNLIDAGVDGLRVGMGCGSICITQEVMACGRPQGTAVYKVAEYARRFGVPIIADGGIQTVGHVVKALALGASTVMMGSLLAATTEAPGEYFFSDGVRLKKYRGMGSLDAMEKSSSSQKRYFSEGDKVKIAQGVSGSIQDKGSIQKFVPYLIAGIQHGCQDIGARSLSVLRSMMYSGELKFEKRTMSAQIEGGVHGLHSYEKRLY
In the case of `NC(=O)c1c[se]c([C@@H]2O[C@H](COP(=O)(O)OP(=O)(O)OC[C@H]3O[C@@H](n4cnc5c(N)ncnc54)[C@H](O)[C@@H]3O)[C@@H](O)[C@H]2O)c1`, the pKi was 6.24.

Consider `NC(=O)c1coc([C@@H]2O[C@H](COP(=O)(O)OP(=O)(O)OC[C@H]3O[C@@H](n4cnc5c(N)ncnc54)[C@H](O)[C@@H]3O)[C@@H](O)[C@H]2O)c1`, for which the pKi is 4.42.

Compound `NC(=O)c1c[se]c([C@@H]2O[C@H](COP(=O)(O)OP(=O)(O)OC[C@H]3O[C@@H](n4cnc5c(N)ncnc54)[C@H](O)[C@@H]3O)[C@@H](O)[C@H]2O)n1` gave a pKi of 7.48.

As for `NC(=O)c1csc([C@@H]2O[C@H](COP(=O)(O)OP(=O)(O)OC[C@H]3O[C@@H](n4cnc5c(N)ncnc54)[C@H](O)[C@@H]3O)[C@@H](O)[C@H]2O)c1`, the negative-log Ki (pKi) is 6.43.

Another test has as its target T2, Inosine-5'-monophosphate dehydrogenase 2 (Homo sapiens, UniProt P12268). The test is described as follows: The compound was tested for the inhibition towards […] (Nicotinamide adenine dinucleotide) substrate of Inosine-5'-monophosphate dehydrogenase 2.
With `NC(=O)c1c[se]c([C@@H]2O[C@H](COP(=O)(O)OP(=O)(O)OC[C@H]3O[C@@H](n4cnc5c(N)ncnc54)[C@H](O)[C@@H]3O)[C@@H](O)[C@H]2O)c1`, the pKi was 6.57.

Compound `NC(=O)c1coc([C@@H]2O[C@H](COP(=O)(O)OP(=O)(O)OC[C@H]3O[C@@H](n4cnc5c(N)ncnc54)[C@H](O)[C@@H]3O)[C@@H](O)[C@H]2O)c1` showed a pKi of 4.00.

`NC(=O)c1c[se]c([C@@H]2O[C@H](COP(=O)(O)OP(=O)(O)OC[C@H]3O[C@@H](n4cnc5c(N)ncnc54)[C@H](O)[C@@H]3O)[C@@H](O)[C@H]2O)n1` had a pKi of 7.59.

For `NC(=O)c1csc([C@@H]2O[C@H](COP(=O)(O)OP(=O)(O)OC[C@H]3O[C@@H](n4cnc5c(N)ncnc54)[C@H](O)[C@@H]3O)[C@@H](O)[C@H]2O)c1`, the pKi was 6.47.

A further test has as its target T2, Inosine-5'-monophosphate dehydrogenase 2. Put plainly: The compound was tested for the inhibition towards IMP(Inosine 5'-monophosphate) substrate of Inosine-5'-monophosphate dehydrogenase 2.
As for `NC(=O)c1c[se]c([C@@H]2O[C@H](COP(=O)(O)OP(=O)(O)OC[C@H]3O[C@@H](n4cnc5c(N)ncnc54)[C@H](O)[C@@H]3O)[C@@H](O)[C@H]2O)c1`, the negative logarithm of the Ki (pKi) is 5.96.

In turn, `NC(=O)c1coc([C@@H]2O[C@H](COP(=O)(O)OP(=O)(O)OC[C@H]3O[C@@H](n4cnc5c(N)ncnc54)[C@H](O)[C@@H]3O)[C@@H](O)[C@H]2O)c1` gave a pKi of 4.24.

In turn, `NC(=O)c1c[se]c([C@@H]2O[C@H](COP(=O)(O)OP(=O)(O)OC[C@H]3O[C@@H](n4cnc5c(N)ncnc54)[C@H](O)[C@@H]3O)[C@@H](O)[C@H]2O)n1` showed a pKi of 7.68.

`NC(=O)c1csc([C@@H]2O[C@H](COP(=O)(O)OP(=O)(O)OC[C@H]3O[C@@H](n4cnc5c(N)ncnc54)[C@H](O)[C@@H]3O)[C@@H](O)[C@H]2O)c1` showed a pKi of 6.49.

In the next test the target is T1, Inosine-5'-monophosphate dehydrogenase 1. Put plainly: The compound was tested for the inhibition towards […] (Nicotinamide adenine dinucleotide) substrate of Inosine-5'-monophosphate dehydrogenase 1.
Consider `NC(=O)c1c[se]c([C@@H]2O[C@H](COP(=O)(O)OP(=O)(O)OC[C@H]3O[C@@H](n4cnc5c(N)ncnc54)[C@H](O)[C@@H]3O)[C@@H](O)[C@H]2O)c1`, for which the pKi was 6.59.

`NC(=O)c1coc([C@@H]2O[C@H](COP(=O)(O)OP(=O)(O)OC[C@H]3O[C@@H](n4cnc5c(N)ncnc54)[C@H](O)[C@@H]3O)[C@@H](O)[C@H]2O)c1` gave a pKi of 3.87.

For the compound `NC(=O)c1c[se]c([C@@H]2O[C@H](COP(=O)(O)OP(=O)(O)OC[C@H]3O[C@@H](n4cnc5c(N)ncnc54)[C@H](O)[C@@H]3O)[C@@H](O)[C@H]2O)n1`, the pKi is 7.21.

`NC(=O)c1csc([C@@H]2O[C@H](COP(=O)(O)OP(=O)(O)OC[C@H]3O[C@@H](n4cnc5c(N)ncnc54)[C@H](O)[C@@H]3O)[C@@H](O)[C@H]2O)c1` gave a negative-log Ki (pKi) of 6.47.

As usually defined, the pKi is the negative decadic logarithm of the Ki, by convention in mol/L. Read a high pKi as a small Ki.
